Patent publication US9878007B2, “Syndecan peptides and polypeptides as inhibitors of vascular endothelial growth factor receptor-2 (VEGFR2) and very late antigen-4 (VLA-4)” (Wisconsin Alumni Research Foundation, priority 2015, dated 2018)
No end group written: not given here.

How the values were obtained:
VEGFR2 and VLA-4 = target: T1, VEGFR2 and VLA-4 (Homo sapiens, UniProt P05556+P13612+P35968); test: Activation / inhibition of Sdc1-mediated coupling of VEGFR2 to VLA-4 (FIGS. 6A-H); assay type: cell-based
T1 construct: the α4-integrin (VLA-4), which is expressed on myeloma cells; endogenous in cells; host or cells: CAG human myeloma cells (HPSE^low / HPSE^high) plated on fibronectin
Experimental: (§1) FIGS. 6A-G. Peptides derived from the active site in Sdc1 activate or inhibit adhesion and invasion. (FIG. 6A) Transwell migration assays towards FN (for 16 hrs) were performed for HPSE low or high cells in the presence of 0, 0.3, 3, and 30 μM of S1ED^210-240. Cells migrating to the bottom side of the filter were counted from five random images for each treatment. (FIG. 6B) The sequence of S1ED210-240 is shown (SEQ ID NO: 3), as well as […] truncation mutants of the peptide (SEQ ID NOs: 5, 2, 4 and 7). Amino acids shown in red appear necessary for the spreading and invasive activity. (FIG. 6C) Images of HPSE^low and HPSE^high cells plated on FN for 2 hr. (FIG. 6D) HPSE^low cells were treated with 0, 0.3, 3, 10 and 30 μM of S1ED^210-236, S1ED^210-233, or S1ED^214-240, plated on FN for 2 hr, fixed and stained with fluorescent phalloidin. Cells from five random images were quantified for cell attachment and cell spreading. (FIG. 6E) HPSE^high cells were treated with 0, 3, 10, and 30 μM of S1ED^210-236, S1ED^210-233, and S1ED^214-240, plated on FN for 2 hr, then fixed, imaged and quantified as in FIG. 6D. (FIG. 6F) Transwell migration assays towards FN (for 16 hr) were performed for HPSE^low or HPSE^high cells in the presence of 30 μM of S1ED^210-236, S1ED^210-233, S1ED^214-240 and Vandetanib. (FIG. 6G) HPSE^low cell lysates were incubated overnight with glutathione beads coated with GST or GST-S1ED in the absence or presence of 30 μM of S1ED^210-236, S1ED^210-233, and S1ED^214-240. Capture of VLA-4 or VEGFR2 was detected by immunoblotting. Sequences in FIG. 6B are 210-240 (SEQ ID NO: 3), 210-236 (SEQ ID NO: 2), 210-233 (SEQ ID NO: 4), 214-240 (SEQ ID NO: 5) and 214-236 (SEQ ID NO: 7).
It is envisioned that a peptide that contains binding sites for both VEGFR2 and VLA-4, such as 210-236, has the capacity to bridge both receptors and link them together. This activates signaling that the cells use for migration and invasion. […]

VLA-4 = target: T2, VLA-4 (Homo sapiens, UniProt P05556+P13612); test: GST pull down assay: capture of VLA-4 by GST-S1ED; assay type: binding; conditions: HPSE^low cell lysates; peptide 30 M [sic]
T2 construct: the α4-integrin (VLA-4), which is expressed on myeloma cells; endogenous in cells; host or cells: CAG human myeloma cells (HPSE^low), whole-cell lysate
Experimental: as §1
(§2) CAG cells were washed with CMF-PBS and then lysed for 20 min on ice in lysis buffer. Cell debris was removed by centrifugation at 13000 rpm for 20 min at 4° C. Whole cell lysates were then incubated at 4° C. overnight with either 3 μM GST or 3 μM GST-S1ED in the absence or presence of 1 μM, 3 μM, and 10 μM S1ED^210-240 peptide. GST or GST-S1ED was captured by addition of glutathione Sepharose and the beads were washed with ice-cold lysis buffer and CMF-PBS, prior to addition of SDS-PAGE sample buffer and analyszed by electrophoresis and western blotting as described previously.

VEGFR2 = target: T3, VEGFR2 (Homo sapiens, UniProt P35968); test: GST pull down assay: capture of VEGFR2 by GST-S1ED; assay type: binding; conditions: HPSE^low cell lysates; peptide 30 M [sic]
T3 construct: endogenous in cells; host or cells: CAG human myeloma cells (HPSE^low = empty vector; HPSE^high = human HPSE cDNA)
Experimental: as §1, §2

[1] = test system: P3x63Ag8 mouse myeloma cells; test: Adhesion of P3x63Ag8 myeloma cells to FN; assay type: cell-based; conditions: 30 uM peptide, 2.5 hr
Experimental: FIG. 7A-B. S1ED^214-236, specific for VEGFR2 coupling to VLA-4, blocks myeloma cell invasion but not adhesion. (FIG. 7A) P3x63Ag8 mouse myeloma cells are plating on the VLA-4 ligand FN in the presence or absence of 30 uM S1ED^210-233 (SEQ ID No: 4) or S1ED^214-236 (SEQ ID No: 7) for 2.5 hr. (FIG. 7B) P3x63Ag8 myeloma cells are plated on FN-coated filters in the presence of HPSE inhibitor OGT2115, VLA-4 blocking antibody P1H4, VEGFR2 inhibitor Vandetanib or S1ED^210-233 or S1ED^214-236 and allowed to migrate through the filter for 16 hr. Small black dots are the pores in the filter.
Nitrocellulose-coated slides were coated for 2 hr at 37° C. with 40 μg/ml FN (kindly provided by Dr. Donna Peters, University of Wisconsin-Madison) or 5 μg/ml recombinant VCAM-1/Fc chimera (R&D Systems) in calcium and magnesium-free PBS (CMF-PBS; 135 mM NaCl, 2.7 mM KCl, 10.2 mM Na2HPO4-7H20 and 1.75 mM KH2PO4, pH7.4). Slides were blocked for 1 hr at 37° C. with RPMI 1640 containing 1% heat-denatured BSA (plating medium). Cells in plating medium were allowed to attach and spread for 2.5 hr at 37° C. Slides were fixed in 4% EM grade paraformaldehyde (Electron Microscopy Sciences) in CMF-PBS and labeled for 30 min in 0.13 μM rhodamine phalloidin (Invitrogen) in CMF-PBS. Coverslips were mounted in non-fluorescing mounting medium (Immumount; Thermo Shandon) and allowed to dry. […]

T3 sequence (P35968 20-1356): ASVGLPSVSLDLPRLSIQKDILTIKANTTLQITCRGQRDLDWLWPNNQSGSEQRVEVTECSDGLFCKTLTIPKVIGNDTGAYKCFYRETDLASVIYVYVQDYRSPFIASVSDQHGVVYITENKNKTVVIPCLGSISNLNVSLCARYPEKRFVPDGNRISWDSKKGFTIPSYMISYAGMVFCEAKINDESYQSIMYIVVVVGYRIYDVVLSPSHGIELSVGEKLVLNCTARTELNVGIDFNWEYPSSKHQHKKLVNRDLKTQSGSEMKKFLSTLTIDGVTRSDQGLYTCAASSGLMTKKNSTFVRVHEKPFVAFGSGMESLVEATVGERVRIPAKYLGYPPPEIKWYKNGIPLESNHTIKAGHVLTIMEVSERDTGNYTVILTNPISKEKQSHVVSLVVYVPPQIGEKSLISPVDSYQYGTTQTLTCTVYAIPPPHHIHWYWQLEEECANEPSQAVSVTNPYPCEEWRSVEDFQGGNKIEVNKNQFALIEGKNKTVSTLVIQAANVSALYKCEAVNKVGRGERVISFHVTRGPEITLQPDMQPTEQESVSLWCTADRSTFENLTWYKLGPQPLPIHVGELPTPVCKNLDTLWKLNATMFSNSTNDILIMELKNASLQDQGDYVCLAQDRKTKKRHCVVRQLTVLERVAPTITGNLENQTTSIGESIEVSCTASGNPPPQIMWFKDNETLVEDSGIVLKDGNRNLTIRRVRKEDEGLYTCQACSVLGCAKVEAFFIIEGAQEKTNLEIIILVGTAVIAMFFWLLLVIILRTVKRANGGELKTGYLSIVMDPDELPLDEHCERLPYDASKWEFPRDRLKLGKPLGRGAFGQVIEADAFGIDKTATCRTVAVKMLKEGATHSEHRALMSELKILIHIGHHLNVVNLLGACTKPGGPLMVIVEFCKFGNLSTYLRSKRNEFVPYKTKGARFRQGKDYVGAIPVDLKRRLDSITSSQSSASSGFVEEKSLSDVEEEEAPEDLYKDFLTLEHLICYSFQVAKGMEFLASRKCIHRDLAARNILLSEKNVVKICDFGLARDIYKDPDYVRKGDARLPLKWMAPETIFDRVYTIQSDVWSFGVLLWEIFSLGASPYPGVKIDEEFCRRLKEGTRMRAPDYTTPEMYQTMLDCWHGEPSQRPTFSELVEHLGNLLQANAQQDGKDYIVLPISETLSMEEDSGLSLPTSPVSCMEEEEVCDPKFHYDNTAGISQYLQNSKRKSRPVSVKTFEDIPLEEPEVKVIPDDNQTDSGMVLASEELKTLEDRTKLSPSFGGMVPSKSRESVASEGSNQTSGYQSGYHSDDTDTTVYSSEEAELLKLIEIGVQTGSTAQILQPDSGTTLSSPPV
T1 sequence (P35968 20-1356): as above
T1 sequence (P13612 34-1032): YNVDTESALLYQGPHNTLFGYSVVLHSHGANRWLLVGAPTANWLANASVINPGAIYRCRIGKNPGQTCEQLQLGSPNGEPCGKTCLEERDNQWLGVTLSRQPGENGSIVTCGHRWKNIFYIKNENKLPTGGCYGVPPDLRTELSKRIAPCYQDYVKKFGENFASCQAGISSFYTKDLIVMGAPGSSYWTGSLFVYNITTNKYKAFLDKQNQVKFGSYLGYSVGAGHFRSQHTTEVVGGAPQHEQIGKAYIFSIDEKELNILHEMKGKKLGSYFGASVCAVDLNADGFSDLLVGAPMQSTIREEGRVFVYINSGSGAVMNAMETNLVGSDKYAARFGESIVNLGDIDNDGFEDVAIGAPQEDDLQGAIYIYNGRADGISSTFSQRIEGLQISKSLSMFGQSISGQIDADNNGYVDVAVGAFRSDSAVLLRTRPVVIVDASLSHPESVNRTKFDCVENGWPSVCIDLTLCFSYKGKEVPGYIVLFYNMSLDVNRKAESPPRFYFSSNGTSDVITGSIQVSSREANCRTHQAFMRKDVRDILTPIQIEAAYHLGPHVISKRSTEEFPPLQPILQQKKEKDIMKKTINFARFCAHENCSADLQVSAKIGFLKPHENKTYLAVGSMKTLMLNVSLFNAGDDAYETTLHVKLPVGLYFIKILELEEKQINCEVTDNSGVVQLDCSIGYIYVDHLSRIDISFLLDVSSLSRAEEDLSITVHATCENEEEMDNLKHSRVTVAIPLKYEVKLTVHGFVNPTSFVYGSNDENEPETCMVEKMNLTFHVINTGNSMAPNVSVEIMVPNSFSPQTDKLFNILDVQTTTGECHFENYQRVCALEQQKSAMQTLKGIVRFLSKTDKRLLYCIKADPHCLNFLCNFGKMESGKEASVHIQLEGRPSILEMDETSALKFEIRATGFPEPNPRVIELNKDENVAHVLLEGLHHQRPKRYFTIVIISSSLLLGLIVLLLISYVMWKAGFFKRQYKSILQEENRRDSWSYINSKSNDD
T1 sequence (P05556 21-798): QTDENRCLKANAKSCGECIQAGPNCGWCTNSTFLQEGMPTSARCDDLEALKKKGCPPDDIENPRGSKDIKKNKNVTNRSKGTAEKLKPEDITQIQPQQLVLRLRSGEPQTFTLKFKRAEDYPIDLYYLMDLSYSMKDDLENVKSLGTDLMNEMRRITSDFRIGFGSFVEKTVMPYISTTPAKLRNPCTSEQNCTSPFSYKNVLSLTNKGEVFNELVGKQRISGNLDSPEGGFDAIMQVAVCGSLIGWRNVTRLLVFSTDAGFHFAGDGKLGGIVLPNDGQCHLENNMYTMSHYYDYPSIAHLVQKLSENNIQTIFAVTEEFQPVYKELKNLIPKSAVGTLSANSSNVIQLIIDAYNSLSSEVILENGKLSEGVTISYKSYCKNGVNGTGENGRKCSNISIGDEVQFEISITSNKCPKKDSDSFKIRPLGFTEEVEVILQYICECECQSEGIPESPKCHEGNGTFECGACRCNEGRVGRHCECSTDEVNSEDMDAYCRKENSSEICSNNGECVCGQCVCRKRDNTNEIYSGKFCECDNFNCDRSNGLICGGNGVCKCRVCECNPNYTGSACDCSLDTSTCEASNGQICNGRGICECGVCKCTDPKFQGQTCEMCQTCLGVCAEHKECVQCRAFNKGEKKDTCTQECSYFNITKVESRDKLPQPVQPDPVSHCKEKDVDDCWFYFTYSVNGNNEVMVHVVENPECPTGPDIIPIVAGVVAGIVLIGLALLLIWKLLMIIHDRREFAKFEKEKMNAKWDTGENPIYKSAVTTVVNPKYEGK
T2 sequence (P13612 34-1032): as the sequence (P13612 34-1032) above
T2 sequence (P05556 21-798): as the sequence (P05556 21-798) above

Substance | EC50 (VEGFR2 and VLA-4; FIGS. 6A-H, read-out: EC50 of bridging VEGFR2 and VLA-4, activating signaling used for migration and invasion) [µM] | IC50 (VEGFR2 and VLA-4; read-out: IC50 as inhibitor of the VLA-4/VEGFR2 coupling mechanism) [µM] | competition for capture of VLA-4 by GST-S1ED (VLA-4) | competition for capture of VEGFR2 by GST-S1ED (VEGFR2) | adhesion of P3X cells to FN [1]
DFTFETSGENTAVVAVEPDRRNQSPVD [S1ED^210-236] | 0.3 | 10 | effectively blocks capture of both receptors | effectively blocks capture of both receptors | 
S1ED^210-233: syndecan-1 ectodomain peptide, residues 210-233 (SEQ ID NO: 4) (DFTFETSGENTAVVAVEPDRRNQS) |  |  |  | competes for capture of VEGFR2 | blocks the adhesion of the myeloma cells to FN
